The values that follow come from ChEMBL document CHEMBL3739380, “Discovery of benzothiazoles as antimycobacterial agents: Synthesis, structure-activity relationships and binding studies with Mycobacterium tuberculosis decaprenylphosphoryl-β-D-ribose 2'-oxidase” (Bioorg Med Chem, 2015).

One data set concerns the target Cytochrome P450 2C9 (Homo sapiens, UniProt P11712). The experiment in a line: Inhibition of human recombinant CYP2C9 by fluorescence assay. Format: ADME. The conditions noted are these: read-out: IC50.
Another data set concerns the target T1, Cytochrome P450 1A2 (Homo sapiens, UniProt P05177).
T1 sequence (P05177 whole entry): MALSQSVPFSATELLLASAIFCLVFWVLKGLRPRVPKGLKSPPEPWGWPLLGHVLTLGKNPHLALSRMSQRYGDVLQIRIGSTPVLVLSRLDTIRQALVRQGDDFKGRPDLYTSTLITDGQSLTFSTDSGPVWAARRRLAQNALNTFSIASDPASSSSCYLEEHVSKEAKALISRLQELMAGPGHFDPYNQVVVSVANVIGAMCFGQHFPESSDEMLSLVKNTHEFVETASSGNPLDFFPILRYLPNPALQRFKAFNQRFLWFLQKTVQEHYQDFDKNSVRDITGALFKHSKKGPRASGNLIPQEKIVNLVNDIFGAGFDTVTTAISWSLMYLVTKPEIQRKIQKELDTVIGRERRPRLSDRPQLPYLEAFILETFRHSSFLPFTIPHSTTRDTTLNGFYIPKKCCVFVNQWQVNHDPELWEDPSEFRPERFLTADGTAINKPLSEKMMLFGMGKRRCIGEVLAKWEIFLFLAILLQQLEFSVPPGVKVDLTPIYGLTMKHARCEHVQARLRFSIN
The experiment in a line: Inhibition of human recombinant CYP1A2 by fluorescence assay. Format: ADME.

Data set [1] is described as follows: Inhibition of Mycobacterium tuberculosis DprE1 using farnesyl-phosphoryl-beta-D-ribofuranose as substrate preincubated for 30 mins before substrate addition by peroxidase coupled assay.
Data set [2] relates to Mycobacterium tuberculosis. Nature of the data set: Antimycobacterial activity against Mycobacterium tuberculosis H37Rv ATCC 27294 after 5 days by microdilution method. The note with it: H37Rv ATCC 27294, 120 h. The format is functional. On the technique in general: Broth dilution looks for growth in wells or tubes with falling amounts of substance.
A further data set deals with Cytochrome P450 2D6 (Homo sapiens, UniProt P10635). Nature of the data set: Inhibition of human recombinant CYP2D6 by fluorescence assay. Format: ADME.
Sequence of Cytochrome P450 2D6 (P10635 whole entry): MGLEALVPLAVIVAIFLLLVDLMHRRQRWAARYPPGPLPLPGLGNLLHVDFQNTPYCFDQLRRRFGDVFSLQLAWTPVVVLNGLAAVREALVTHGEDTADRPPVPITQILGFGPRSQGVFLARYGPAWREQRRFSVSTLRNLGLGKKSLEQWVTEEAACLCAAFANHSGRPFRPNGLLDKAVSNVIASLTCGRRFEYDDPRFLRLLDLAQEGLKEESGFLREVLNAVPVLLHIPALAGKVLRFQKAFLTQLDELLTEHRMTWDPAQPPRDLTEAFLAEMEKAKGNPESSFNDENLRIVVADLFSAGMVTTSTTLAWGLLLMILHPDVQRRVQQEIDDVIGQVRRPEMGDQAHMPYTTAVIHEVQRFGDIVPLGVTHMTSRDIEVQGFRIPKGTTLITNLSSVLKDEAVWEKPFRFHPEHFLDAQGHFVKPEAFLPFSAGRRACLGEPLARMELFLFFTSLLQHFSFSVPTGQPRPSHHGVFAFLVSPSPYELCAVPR
The next data set has as its target Cytochrome P450 2C19 (Homo sapiens, UniProt P33261). The experiment in a line: Inhibition of human recombinant CYP2C19 by fluorescence assay. Format: ADME.
The next data set concerns the target Cytochrome P450 3A4 (Homo sapiens, UniProt P08684). The experiment in a line: Inhibition of human recombinant CYP3A4 by fluorescence assay. The format is ADME.
A further data set deals with A549. Nature of the data set: Cytotoxicity against human A549 cells after 72 hrs by fluorescence assay. The format is cell-based. The conditions noted are these: A549, 72 h.
Data set [3] in a line: Aqueous solubility of the compound. The format is physicochemical. The note with it: buffer.
The nature of data set [4]: Fraction unbound in mouse plasma protein. The format is ADME, cell-free.
Data set [5] in a line: Intrinsic clearance in mouse liver microsomes. Format: ADME. The note with it: read-out: CLH. (In general: Microsomes from liver hold many membrane-bound enzymes, among them those of drug oxidation.)
Data set [6] can be described thus: Intrinsic clearance in human liver microsomes. Format: ADME. The note with it: read-out: CLH.
Data set [7] can be described thus: Clearance in iv dosed mouse. The format is ADME, organism-based. The conditions noted are these: in vivo.
The nature of data set [8]: Oral bioavailability in mouse. The note with it: in vivo. Format: ADME, organism-based.
Data set [9] can be described thus: AUC100 in po dosed mouse. Format: ADME, organism-based. The conditions noted are these: in vivo.
A short description of data set [10]: Volume of distribution at steady state in mouse. The format is ADME, organism-based. The note with it: in vivo, read-out: Vdss.
The test system of data set [11] is Salmonella typhimurium. The experiment in a line: Genotoxicity in Salmonella typhimurium TA100 at 16 ug/plate by Ames test in presence of S9 fraction. The format is toxicity, organism-based. The note with it: salmonella enterica subsp. enterica serovar typhimurium.
Data set [12] relates to Salmonella typhimurium. The experiment in a line: Genotoxicity in Salmonella typhimurium TA98 at 1600 ug/plate by Ames test in absence of S9 fraction. The conditions noted are these: salmonella enterica subsp. enterica serovar typhimurium. Format: toxicity, organism-based. (In general: The Ames test detects mutagens through reverse mutation in bacteria.)
The test system of data set [13] is Salmonella typhimurium. The experiment in a line: Genotoxicity in Salmonella typhimurium TA100 at 16 ug/plate by Ames test in absence of S9 fraction. The format is toxicity, organism-based. The note with it: salmonella enterica subsp. enterica serovar typhimurium.
The test system of data set [14] is Salmonella typhimurium. The experiment in a line: Genotoxicity in Salmonella typhimurium TA98 at 1600 ug/plate by Ames test in presence of S9 fraction. Format: toxicity, organism-based. The conditions noted are these: salmonella enterica subsp. enterica serovar typhimurium.
Data set [15] has as its system Salmonella typhimurium. The experiment in a line: Genotoxicity in Salmonella typhimurium TA98 at 500 ug/plate by Ames test in absence of S9 fraction. Format: toxicity, organism-based. The note with it: salmonella enterica subsp. enterica serovar typhimurium.
For data set [16], the system named is Salmonella typhimurium. The experiment in a line: Genotoxicity in Salmonella typhimurium TA98 at 500 ug/plate by Ames test in presence of S9 fraction. The format is toxicity, organism-based. The note with it: salmonella enterica subsp. enterica serovar typhimurium.
Data set [17] has as its system Salmonella typhimurium. The experiment in a line: Genotoxicity in Salmonella typhimurium TA100 at 1600 ug/plate by Ames test in absence of S9 fraction. Format: toxicity, organism-based. The conditions noted are these: salmonella enterica subsp. enterica serovar typhimurium.
The subject of data set [18] is Salmonella typhimurium. The experiment in a line: Genotoxicity in Salmonella typhimurium TA100 at 160 ug/plate by Ames test in presence of S9 fraction. The format is toxicity, organism-based. The note with it: salmonella enterica subsp. enterica serovar typhimurium.
In data set [19] the test system is Salmonella typhimurium. Nature of the data set: Genotoxicity in Salmonella typhimurium TA100 at 500 ug/plate by Ames test in absence of S9 fraction. The conditions noted are these: salmonella enterica subsp. enterica serovar typhimurium. The format is toxicity, organism-based.
Data set [20] concerns Salmonella typhimurium. The experiment in a line: Genotoxicity in Salmonella typhimurium TA100 at 500 ug/plate by Ames test in presence of S9 fraction. Format: toxicity, organism-based. The note with it: salmonella enterica subsp. enterica serovar typhimurium.
Data set [21] has as its system Salmonella typhimurium. The experiment in a line: Genotoxicity in Salmonella typhimurium TA98 at 5000 ug/plate by Ames test in absence of S9 fraction. The format is toxicity, organism-based. The conditions noted are these: salmonella enterica subsp. enterica serovar typhimurium.
The subject of data set [22] is Salmonella typhimurium. Nature of the data set: Genotoxicity in Salmonella typhimurium TA100 at 5000 ug/plate by Ames test in absence of S9 fraction. Format: toxicity, organism-based. The conditions noted are these: salmonella enterica subsp. enterica serovar typhimurium.
Data set [23] has as its system Salmonella typhimurium. The experiment in a line: Genotoxicity in Salmonella typhimurium TA98 at 5000 ug/plate by Ames test in presence of S9 fraction. Format: toxicity, organism-based. The note with it: salmonella enterica subsp. enterica serovar typhimurium.
Data set [24] concerns Salmonella typhimurium. Nature of the data set: Genotoxicity in Salmonella typhimurium TA100 at 5000 ug/plate by Ames test in presence of S9 fraction. The format is toxicity, organism-based. The note with it: salmonella enterica subsp. enterica serovar typhimurium.
Data set [25] deals with Salmonella typhimurium. Nature of the data set: Genotoxicity in Salmonella typhimurium TA98 at 50 ug/plate by Ames test in absence of S9 fraction. The format is toxicity, organism-based. The conditions noted are these: salmonella enterica subsp. enterica serovar typhimurium.
In data set [26] the test system is Salmonella typhimurium. The experiment in a line: Genotoxicity in Salmonella typhimurium TA100 at 50 ug/plate by Ames test in absence of S9 fraction. Format: toxicity, organism-based. The note with it: salmonella enterica subsp. enterica serovar typhimurium.
In data set [27] the test system is Salmonella typhimurium. The experiment in a line: Genotoxicity in Salmonella typhimurium TA98 at 50 ug/plate by Ames test in presence of S9 fraction. Format: toxicity, organism-based. The note with it: salmonella enterica subsp. enterica serovar typhimurium.
Data set [28] relates to Mycobacterium tuberculosis. The experiment in a line: Binding affinity to N-terminal His-tagged Mycobacterium tuberculosis DprE1 assessed as molecular weight shift due to semimercaptal covalent DprE1 adduct formation at 400 uM incubated for 5 hrs in presence of FAD and FPR by deconvoluted mass spectrometry.

≈ marks a conversion by molar mass, not a printed value. Calls of active or inactive are those of the source. Some results are limits rather than exact numbers.

Sequence of Cytochrome P450 3A4 (P08684 whole entry): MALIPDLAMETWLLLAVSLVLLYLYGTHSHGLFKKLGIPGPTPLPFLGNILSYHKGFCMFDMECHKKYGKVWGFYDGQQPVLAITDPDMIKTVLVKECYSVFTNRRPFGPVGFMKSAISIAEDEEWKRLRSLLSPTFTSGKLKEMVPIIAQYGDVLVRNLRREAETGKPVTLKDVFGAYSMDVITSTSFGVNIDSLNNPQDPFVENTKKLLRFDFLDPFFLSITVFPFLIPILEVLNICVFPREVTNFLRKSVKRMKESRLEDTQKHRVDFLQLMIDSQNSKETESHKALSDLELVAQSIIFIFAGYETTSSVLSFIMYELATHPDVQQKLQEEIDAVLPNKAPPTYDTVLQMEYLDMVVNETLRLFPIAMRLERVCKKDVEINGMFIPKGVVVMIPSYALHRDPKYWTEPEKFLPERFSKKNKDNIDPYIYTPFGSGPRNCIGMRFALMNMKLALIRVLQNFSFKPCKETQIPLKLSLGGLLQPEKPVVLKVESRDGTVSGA
Sequence of Cytochrome P450 2C19 (P33261 whole entry): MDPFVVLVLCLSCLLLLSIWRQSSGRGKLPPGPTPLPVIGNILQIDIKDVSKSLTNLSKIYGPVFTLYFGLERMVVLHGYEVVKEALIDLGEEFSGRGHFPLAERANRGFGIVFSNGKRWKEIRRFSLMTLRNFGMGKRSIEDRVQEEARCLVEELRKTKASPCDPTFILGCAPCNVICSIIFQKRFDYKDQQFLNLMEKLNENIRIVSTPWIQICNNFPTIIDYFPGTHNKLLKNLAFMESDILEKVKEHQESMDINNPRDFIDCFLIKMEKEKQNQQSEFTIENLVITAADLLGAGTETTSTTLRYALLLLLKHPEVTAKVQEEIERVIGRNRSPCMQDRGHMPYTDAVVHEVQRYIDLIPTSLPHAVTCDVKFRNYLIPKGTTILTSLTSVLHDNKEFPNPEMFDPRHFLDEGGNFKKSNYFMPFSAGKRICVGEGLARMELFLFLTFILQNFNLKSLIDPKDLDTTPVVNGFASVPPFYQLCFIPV
Sequence of Cytochrome P450 2C9 (P11712 whole entry): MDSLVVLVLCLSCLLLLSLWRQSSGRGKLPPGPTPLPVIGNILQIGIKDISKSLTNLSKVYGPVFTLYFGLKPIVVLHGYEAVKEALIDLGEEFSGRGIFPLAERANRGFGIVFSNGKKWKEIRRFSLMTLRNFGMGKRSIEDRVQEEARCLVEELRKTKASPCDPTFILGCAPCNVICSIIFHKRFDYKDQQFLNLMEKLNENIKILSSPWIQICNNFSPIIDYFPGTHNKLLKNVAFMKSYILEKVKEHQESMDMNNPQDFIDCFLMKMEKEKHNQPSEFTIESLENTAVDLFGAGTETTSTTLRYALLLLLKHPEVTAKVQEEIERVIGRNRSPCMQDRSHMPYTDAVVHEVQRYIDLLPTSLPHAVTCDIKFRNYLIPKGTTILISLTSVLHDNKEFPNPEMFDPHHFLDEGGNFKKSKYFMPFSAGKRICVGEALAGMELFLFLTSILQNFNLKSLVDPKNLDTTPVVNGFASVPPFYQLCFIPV

Consider `O=C([C@@H]1COC(c2nc3cc(C(F)(F)F)cc([N+](=O)[O-])c3s2)=N1)N1CCCC1`, for which the IC50 at Cytochrome P450 2C9 worked out at 12.4 µM; at Cytochrome P450 1A2, 53.1 µM; in data set [1] it was 0.654 µM; at Cytochrome P450 2D6, 3.4 µM; at Cytochrome P450 2C19, 24.2 µM; on Cytochrome P450 3A4, 18.6 µM. Also, it took 82 µM to reach half-maximal inhibition in the data set with A549 (IC50). In [2], this compound displayed an MIC of 1.4 µg/mL (≈ 3.38 µM). This compound showed a solubility in data set [3] of 64.6 µM (≈ 26.8 µg/mL). The same compound registered a free fraction (fraction unbound) in data set [4] of 0.06. In addition, the results for the microsomal CLint in data set [5] and in data set [6] were 76.6 µL/min/mg and 5.3 µL/min/mg, respectively. The compound also yielded a clearance in [7] of 49 mL/min/kg. For the same compound, the bioavailability in [8] is 27%. In data set [9], the AUC was determined as 9180 ng·h/mL. In addition, in [10], the Vd is 1.44 L/kg. Also, the Activity result with Salmonella typhimurium [11], in the data set on Salmonella typhimurium [12], with Salmonella typhimurium [13] and in the data set with Salmonella typhimurium [14] was “Toxic” throughout.
Turning to `O=[N+]([O-])c1cc(C(F)(F)F)cc2nc(C3=NCCO3)sc12`, in [2], the MIC stood at 1 µg/mL (≈ 3.15 µM). Besides, the Activity result in the data set on Salmonella typhimurium [15], in the data set with Salmonella typhimurium [16], in the data set on Salmonella typhimurium [17] and in the data set on Salmonella typhimurium [18] was “Toxic” in each case.
The compound `COCc1nc2cc(C(F)(F)F)cc([N+](=O)[O-])c2s1` displayed a concentration for half-maximal inhibition (IC50) in data set [1] of 5.9 µM. The compound further yielded an MIC in data set [2] greater than 32 µg/mL. Also, the Activity entry with Salmonella typhimurium [19] and with Salmonella typhimurium [20] was “Non-toxic” each time.
On to `Cc1c(C(F)(F)F)cc2nc(C3=N[C@H](C(=O)N4CCCC4)CO3)sc2c1[N+](=O)[O-]`, for which the IC50 was 22.1 µM at Cytochrome P450 2C9; greater than 100 µM at Cytochrome P450 1A2; 1.2 µM in data set [1]; greater than 100 µM on Cytochrome P450 2D6; 73.5 µM at Cytochrome P450 2C19; greater than 100 µM at Cytochrome P450 3A4. The IC50 in the data set with A549 was greater than 100 µM. In data set [2], the MIC is 2 µg/mL (≈ 4.67 µM). Further, the concentration in solution in data set [3] (solubility) was 12 µM (≈ 5.14 µg/mL). In data set [4], this compound registered a fraction unbound of 0.063. In addition, the values for the microsomal CLint in [5] and in [6] were 37.9 µL/min/mg and 9.6 µL/min/mg, respectively. For the same compound, the clearance in [7] was 83.5 mL/min/kg. Moreover, the bioavailability in [8] was determined as 22.5%. In addition, the AUC in [9] worked out at 10200 ng·h/mL. For the same compound, the Vd in data set [10] was found to be 3.5 L/kg. Moreover, the Activity entry in the data set with Salmonella typhimurium [21], with Salmonella typhimurium [22], with Salmonella typhimurium [23] and in the data set on Salmonella typhimurium [24] was “Non-toxic” throughout.
Regarding `COCCN1CCN(C(=O)c2sc3c([N+](=O)[O-])cc(C(F)(F)F)cc3[n+]2[O-])CC1`, the IC50 in data set [1] is 0.027 µM. The compound also displayed an MIC in [2] of 0.03 µg/mL (≈ 0.0691 µM). Also, the Activity result in the data set on Salmonella typhimurium [25], in the data set with Salmonella typhimurium [26], in the data set on Salmonella typhimurium [27] and in the data set on Salmonella typhimurium [11] was “Toxic” throughout.
In data set [2], `O=C(NCc1cccnc1)c1sc2c([N+](=O)[O-])cc(C(F)(F)F)cc2[n+]1[O-]` had an MIC of 0.03 µg/mL (≈ 0.0753 µM). Besides, in [28], the result was Active.

A word on the IC50: it is the midpoint of a concentration-inhibition curve. A word on the MIC: it is the smallest concentration in the dilution series that meets the test's criterion for growth inhibition. Low values mean a more susceptible organism, high ones a less susceptible organism. One may read the solubility as how much of the substance goes into solution per volume. Low values mean a poorly soluble substance, high ones a readily soluble substance. As usually defined, the fraction unbound is free concentration divided by total concentration. Usually clearance stands for the volume of plasma or blood freed of the substance per unit of time. Higher therefore signals efficient removal. One may read the bioavailability as dose-corrected exposure relative to a reference, in per cent. Read a high bioavailability as good availability. What is called AUC is the area under the concentration-time curve, a measure of exposure.
